Measured values taken from patent US4956389A, “Compounds having calcium blocking activity” (priority 1982, dated 1990).
“And” between values parts separate entries of the source, which are not always exact repeats. Equal entries are not always repeated. Where two headings read alike, the source gives them in different places.

Assays:
[1] = system: portions of the aorta; test: Contraction of aorta portions by arachidonic acid after oral administration to rabbits (studies in vivo); parameters: species or system rabbit
Procedure: Both substances YS 035 and Nicardipine have been administered orally for a period of three consecutive days to rabbits in such a manner that the last administration of each substance was carried out one hour prior to killing the animals. The portions of the aorta had then been incubated either in PRP as well as in the Krebs-Henseleit liquid.

[2] = system: aorta of rabbits; test: Antagonistic activity on the contractions produced by arachidonic acid on the aorta of rabbits, study in vitro; parameters: species or system rabbit; settings: for inhibition at 1 mg/kg: dose 1.0 mg·Kg^-1
Procedure: The study has been carried out by comparison with Nicardipine using autologous blood as the perfusion liquid. The addition of 0.1 mg of arachidonate to the liquid induces an isometric contraction of the aorta which is registered by a transducer. […] This phenomenon is shown by the relaxation which follows the addition of arachidonate to the perfusion blood. This effect may be noted with 0.1 mg/kg of YS 035 and 1 mg/kg of Nicardipine.

[3] = system: rats; test: Antagonistic effect to biochemical disturbances during the post-oligemic period in rats; format: in vivo, rat
Procedure: Oligemia in rats is caused by simultaneous bilateral occlusion of the carotid arteries associated with a slight decrease (8-9 kPa) of blood pressure and is maintained for 60 minutes. After removal of the occlusion, the post-oligemic period is followed for several days. In this case, the observation is continued up to the third day, at the time during which the brain accumulation of Ca^++ ions reaches the maximum.
The substances YS 035 or Nicardipine respectively, are administered to rats, 1, 5, 18, 24, 42 and 71 hours after having removed the carotid occlusion. The rats are sacrificed after 72 hours and the tissues are rapidly removed in order to determine their content of water, calcium and potassium.

[4] = system: isolated guinea-pig atria; settings: papaverine with verapamil; cited from earlier work
[5] = target: phosphodiesterase; test: Inhibition of the phosphodiesterase activity (method of K. G. Nair); format: biochemical; settings: read-out: ID50 (inhibiting dose 50%); up to 10 mM
Procedure: The inhibition of phosphodiesterase activity of YS 035 and of papaverine has been assessed according to the method of K. G. Nair (Biochemistry, 5, 150, 1966).
It has been used a medium containing:
2.5 ml of buffer tris-HCl 0.1M pH 7.4;
50 μl CAMP "Sigma" (1 mg/ml);
5 μl Adenosin deaminase (2 mg/ml);
20 μl of alkaline phosphatase "Sigma" (2.6 mg/ml);
15 μl of phosphodiesterase (10 mg/ml).
YS 035 has been added up to a final concentration of 100 mM and Papaverine to a concentration of 10 mM.

[6] = system: synaptosomes of the brain of rats; test: Inhibition of the Ca2+-uptake in synaptosomes of the brain of rats; format: biochemical, rat; settings: 250 μM
Procedure: The synaptosomes have been prepared from an homogenate of the brain of rats by centrifugation in the gradient of Filcoll at 23,500 rpm for a period of 30 minutes and diluted to 1.5 mg/cc in the medium constituted by:
After 15 minutes of preincubation, ^45 CaCl2, final concentration 1 mM (0.2μCi/cc is added to the medium).
The first determination has been carried out two minutes after the addition. […] After each period, the reaction has been stopped by centrifugation and the radioactivity has been determined in the supernatant as well as in the pellet. The latter had been denatured previously with PCA, neutralized and subsequently centrifuged.

[7] = system: calcium ion flows; settings: cited from earlier work
[8] = system: phosphodiesterases; settings: cited from earlier work
[9] = system: kidney cells in newborn hamsters; test: Inhibition of Ca2+-uptake in kidney cells in newborn hamsters; format: cell-based, hamster
Procedure: Cells of kidneys of newborn hamsters have been washed and then resuspended several times in concentration of 5·10^6 /cc in the medium of the following composition:
After 15 minutes of preincubation at 30° C., the reaction was made to begin by addition to the medium of ^45 CaCl2 1 mM (0.1μCi/cc). The concentrations at 0 period of time were the concentrations determined two minutes after the addition. The other controls were carried out after 5 minutes, 10 minutes, and 20 minutes. The determination of [Ca^2+ ] was carried out as in the preceding experiment.

[10] = system: mitochondria of liver of rats; test: Inhibition of Ca2+-uptake in mitochondria of liver of rats; format: biochemical, rat; settings: 250 μM; 20° C.; control 14.3
Procedure: The mitochondria prepared according to classical methods are diluted to a concentration of 1.5 mg/cc in a medium of incubation which has the following composition:
After a period of 15 minutes of preincubation at 20° C. there was added ^45 CaCl2 (50 n mol/mg prot.).
In a manner analogous to the preceding experiments, the concentrations determined after two minutes were called the concentration at 0 period of time. The other controls were determined after 5 minutes, after 10 minutes and after 15 minutes. For the determination of Ca^2+, the experiment was carried out in a manner analogous to the preceding experiments.
The results are reported in Table 3 as the quantity of Ca transferred per mg of protein

SMILES: COC(=O)C1=C(C)NC(C)=C(C(=O)OCCN(C)Cc2ccccc2)C1c1cccc([N+](=O)[O-])c1 (centres unmarked) [Nicardipine, reference compound]
- Amplitude of contraction, medium Krebs, individual values ([1]; 1 mg·Kg^-1 P.O., Krebs, controls 12 ± 2.3): -30 mm and -10 mm
- Amplitude of contraction, PRP, individual values ([1]; 1 mg·Kg^-1 P.O., PRP, controls 30 ± 8.0): +24 mm and +55 mm
- site of action (in words) ([1]; aortic endothelial level, particularly PGI2): act directly on the synthesis of prostaglandin
- Contraction of the first portion of the aorta ([2]; N = 4): 38 ± 4.9 mm
- inhibition at 0.01 mg/kg ([2]; Oryctolagus cuniculus, dose 0.01 mg·Kg^-1, read-out: Contraction of the second and third portion of the aorta, % Variation): 6%
- inhibition at 0.1 mg/kg ([2]; Oryctolagus cuniculus, dose 0.1 mg·Kg^-1, read-out: Contraction of the second and third portion of the aorta, % Variation): 48 ± 15.5%
- inhibition at 1 mg/kg ([2]; Oryctolagus cuniculus, read-out: Contraction of the second and third portion of the aorta, % Variation): 162%
- inhibition at 1 mg/kg ([2]; Oryctolagus cuniculus, second and third portion, read-out: % Variation, small contractions observed occasionally prior to relaxation (value in brackets)): 84%
- minimal effective dose ([2]; Oryctolagus cuniculus, autologous blood perfusion, 0.1 mg arachidonate, read-out: dose at which relaxation following the addition of arachidonate is noted): 1 mg/kg
- inhibitory effect on the contraction produced by the arachidonate (in words) ([2]; YS 035 compared with Nicardipine): comparable
- Cerebral concentration, Ca++ ([3]; 3 mg·Kg^-1 P.O. 7×, 72 h, post-oligemic controls 28.2 ± 3.22): 19.3 ± 4.92 mmol·Kg^-1 of dry substance
- Cerebral concentration, H2O ([3]; 3 mg·Kg^-1 P.O. 7×, 72 h, post-oligemic controls 80.1 ± 0.37): 79.2 ± 0.42%
- Cerebral concentration, K+ ([3]; 3 mg·Kg^-1 P.O. 7×, 72 h, post-oligemic controls 366.2 ± 12.58): 368.5 ± 19.69 mmol·Kg^-1 of dry substance
- intracellular accumulation of Ca++ ions (in words) ([3]; rat, in vivo): much less significant

SMILES: COc1ccc(CCN(C)CCCC(C#N)(c2ccc(OC)c(OC)c2)C(C)C)cc1OC (centres unmarked) [verapamil]
- interaction on the slow entry flows sustained by calcium ions (in words) [4]: mutually antagonistic

SMILES: COc1ccc(Cc2nccc3cc(OC)c(OC)cc23)cc1OC [Papaverine]
- IC50 [5]: 40 µM
- interaction on the slow entry flows sustained by calcium ions (in words) [4]: mutually antagonistic
- inhibitory activity on the calcium uptake (in words) [6]: completely devoid of calcium antagonistic activity
- Ca2+-uptake ([6]; 45CaCl2 1 mM, control 80 ± 7): 79 ± 5 n g ions/mg prot/15 min
- effect on calcium ion flows (in words) ([7]; at the lower concentrations): stimulation of calcium ion flows
- concentration of antagonism on the calcium ion [7]: about 10^-4 M
- calcium antagonistic activity (in words) ([7]; conclusion from literature): totally devoid of calcium antagonistic activity
- main biochemical action (in words) [8]: inhibition of phosphodiesterases

SMILES: COC(=O)C1=C(C)NC(C)=C(C(=O)OC)C1c1ccccc1[N+](=O)[O-] [Nifedipine, reference compound]
- Ca2+-uptake ([9]; 250 μM, 30° C., control 11.9): 7.9 n g ions/mg prot/15'
- percent change in Ca2+-uptake versus control at 250 µM ([9]; Mesocricetus auratus, 0.25 h, 15 min): -33.6%
- Ca2+-uptake [10]: 9.5 n g ions/mg prot.
